Target: T1, TIR1–ASK1–IAA7 auxin receptor complex (ASK1–TIR1–Aux/IAA–IAA receptor complex) (Arabidopsis thaliana, UniProt Q570C0)
T1 construct: ASK1–TIR1 co-purified from insect cells; IAA7 ORF as recombinant His8-MBP fusion (pET28-His8-MBP vector); mixed at molar ratio 1:3 (ASK1–TIR1 : IAA7); with SKP1-like protein 1A; Auxin-responsive protein IAA7
T1 sequence (Q570C0 1-594): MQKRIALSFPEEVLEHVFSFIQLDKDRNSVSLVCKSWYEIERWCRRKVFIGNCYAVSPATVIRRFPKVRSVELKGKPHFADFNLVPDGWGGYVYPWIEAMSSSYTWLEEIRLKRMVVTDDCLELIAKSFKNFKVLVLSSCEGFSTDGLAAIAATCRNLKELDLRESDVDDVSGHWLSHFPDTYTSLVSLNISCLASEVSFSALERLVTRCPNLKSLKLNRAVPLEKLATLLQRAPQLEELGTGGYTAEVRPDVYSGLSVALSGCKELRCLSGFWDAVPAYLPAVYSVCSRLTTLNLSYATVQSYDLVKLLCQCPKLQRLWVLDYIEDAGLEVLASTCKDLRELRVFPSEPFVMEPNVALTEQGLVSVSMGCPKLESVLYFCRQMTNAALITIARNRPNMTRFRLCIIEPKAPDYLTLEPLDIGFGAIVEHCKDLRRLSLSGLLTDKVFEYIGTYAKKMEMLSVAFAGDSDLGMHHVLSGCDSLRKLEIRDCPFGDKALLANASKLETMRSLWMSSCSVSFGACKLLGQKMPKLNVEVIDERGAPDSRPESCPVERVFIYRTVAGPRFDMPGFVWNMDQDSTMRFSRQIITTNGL
T1 sequence (Q39255 1-160 partner): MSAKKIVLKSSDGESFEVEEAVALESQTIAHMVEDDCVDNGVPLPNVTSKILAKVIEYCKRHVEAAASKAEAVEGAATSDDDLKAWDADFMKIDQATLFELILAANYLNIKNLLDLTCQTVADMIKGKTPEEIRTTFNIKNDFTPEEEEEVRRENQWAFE
T1 sequence (Q38825 1-243 partner): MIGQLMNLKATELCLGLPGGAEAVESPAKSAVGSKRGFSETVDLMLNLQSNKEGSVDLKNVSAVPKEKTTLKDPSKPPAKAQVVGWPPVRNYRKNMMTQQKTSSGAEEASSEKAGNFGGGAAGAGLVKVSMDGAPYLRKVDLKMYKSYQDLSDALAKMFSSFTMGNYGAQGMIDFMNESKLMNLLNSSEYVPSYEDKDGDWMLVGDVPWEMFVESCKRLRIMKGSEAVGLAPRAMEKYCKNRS
Test: auxin-dependent pull-down of ASK1–TIR1 with [3H]-InsP6 by His8-MBP-IAA7
Type: binding
Conditions: 0.1 uM IAA versus no auxin; pH 7.5, 4 °C; read-out is recovered [3H]-InsP6

SMILES | auxin-dependent pull-down of ASK1-TIR1 with [3H]-InsP6 by His8-MBP-IAA7
O=C(O)Cc1c[nH]c2ccccc12 [IAA] | auxin is critical for the interaction between ASK–TIR1 and Aux/IAA protein

Target: T1, TIR1–ASK1–IAA7 auxin receptor complex (ASK1–TIR1–Aux/IAA–IAA receptor complex)
Test: competitive radioligand displacement of [3H]-InsP6, Ni-NTA pull-down
Type: binding
Conditions: not given

IC50 [nM] | SMILES
114 | O=P(O)(O)O[C@@H]1[C@@H](OP(=O)(O)O)[C@@H](OP(=O)(O)O)[C@@H](O)[C@H](OP(=O)(O)O)[C@H]1OP(=O)(O)O [InsP5 [1-OH]]
19 | O=P(O)(O)O[C@H]1[C@H](OP(=O)(O)O)[C@@H](OP(=O)(O)O)[C@H](OP(=O)(O)O)[C@@H](OP(=O)(O)O)[C@H]1OP(=O)(O)O [InsP6]
20 | O=P(O)(O)O[C@H]1[C@@H](OP(=O)(O)O)[C@H](OP(=O)(O)O)[C@@H](OP(=O)(O)OP(=O)(O)O)[C@H](OP(=O)(O)O)[C@H]1OP(=O)(O)O [5-InsP7]
34 | O=P(O)(O)O[C@H]1[C@@H](OP(=O)(O)O)[C@H](OP(=O)(O)O)[C@@H](O)[C@H](OP(=O)(O)O)[C@H]1OP(=O)(O)O [InsP5 [5-OH]]
31 | O=P(O)(O)O[C@@H]1[C@@H](OP(=O)(O)O)[C@H](OP(=O)(O)O)[C@@H](O)[C@@H](OP(=O)(O)O)[C@H]1OP(=O)(O)O [InsP5 [3-OH]]
